From patent US10004701B2, “Methods and compositions for treating infection” (UNIVERSITY OF ROCHESTER, priority 2012, dated 2018)
≈ marks a conversion by molar mass, not a printed value. Where two headings read alike, the source gives them in different places.

Assays:
S. aureus = assay: Minimum Inhibitory Concentration (MIC) testing, terfenadine study; assay type: cell-based; conditions: Staphylococcus aureus, 16 h
P. aeruginosa = assay: AK assay 384-well format, Prestwick library screening; assay type: cell-based, Pseudomonas aeruginosa; conditions: 50 μM final drug concentration; for fold induction at 50 µM: Pseudomonas aeruginosa, 3 h
E. coli = assay: as above; assay type: cell-based, Escherichia coli; conditions: 50 μM final drug concentration; for fold induction at 50 µM: Escherichia coli, 3 h
K. pneumoniae = assay: as above; assay type: cell-based, Klebsiella pneumoniae; conditions: 50 μM final drug concentration; for fold induction at 50 µM: Klebsiella pneumoniae, 3 h
E. faecium = assay: as above; assay type: cell-based, Enterococcus faecium; conditions: 50 μM final drug concentration; for fold induction at 50 µM: Enterococcus faecium, 3 h
[1] = test system: A. baumannii strain 98-37-09; assay: as above; assay type: cell-based, Acinetobacter baumannii; conditions: 50 μM final drug concentration; for fold induction at 50 µM: Acinetobacter baumannii, 983709, 3 h
E. cloacae = assay: as above; assay type: cell-based, Enterobacter cloacae; conditions: 50 μM final drug concentration; for fold induction at 50 µM: Enterobacter cloacae, 3 h
[2] = test system: S. aureus strain USA300-0114; assay: as above; assay type: cell-based, Staphylococcus aureus; conditions: 50 μM final drug concentration; for fold induction at 50 µM: Staphylococcus aureus, USA300, 3 h
[3] = S. aureus, MHB, strain not given, read-out: MIC
[4] = cutoff for positive-scoring molecules 3-fold increase
[5] = planktonic, cutoff for positive 3-fold increase

CC(C)(C)c1ccc(C(O)CN2CCC(C(O)(c3ccccc3)c3ccccc3)CC2)cc1 (stereo not drawn) [Compound 17, 1-(4-(tert-butyl)phenyl)-2-(4-(hydroxydiphenylmethyl)piperidin-1-yl)ethanol]
MIC (S. aureus; [3]): 16 µg/mL (≈ 36.1 µM)

CC(C)(C)c1ccc(C(=O)CN2CCC(C(O)(c3ccccc3)c3ccccc3)CC2)cc1 [Compound 20, 1-(4-(tert-butyl)phenyl)-2-(4-(hydroxydiphenylmethyl)piperidin-1-yl)ethanone]
MIC (S. aureus): > 256 µg/mL

CC(C)c1ccc(C(O)CCCN2CCC(C(O)(c3ccccc3)c3ccccc3)CC2)cc1 (stereo not drawn) [Compound 1, 4-(4-(hydroxydiphenylmethyl)piperidin-1-yl)-1-(4-isopropylphenyl)butan-1-ol]
MIC (S. aureus; [3]): 16 µg/mL (≈ 35 µM)

CC[C@H](C)[C@H]1O[C@]2(CC[C@@H]1C)C[C@@H]1C[C@@H](C/C=C(\C)[C@@H](O[C@H]3C[C@H](OC)[C@@H](O[C@H]4C[C@H](OC)[C@@H](O)[C@H](C)O4)[C@H](C)O3)[C@@H](C)/C=C/C=C3\CO[C@@H]4[C@H](O)C(C)=C[C@@H](C(=O)O1)[C@]34O)O2 [Ivermectin]
AK-based Prestwick Library Screening Results: P. aeruginosa (increase in extracellular AK activity) (P. aeruginosa; planktonic P. aeruginosa, 384-well, […]): 1.0
AK-based Prestwick Library Screening Results: E. coli (increase in extracellular AK activity) (E. coli; planktonic E. coli, 384-well, […]): 1.3
AK-based Prestwick Library Screening Results: K. pneumoniae (increase in extracellular AK activity) (K. pneumoniae; planktonic K. pneumoniae, 384-well, […]): 1.0
AK-based Prestwick Library Screening Results: E. faecium (increase in extracellular AK activity) (E. faecium; planktonic E. faecium, 384-well, […]): 1.2
AK-based Prestwick Library Screening Results: A. baumannii (increase in extracellular AK activity) ([1]; planktonic A. baumannii, 384-well, […]): 1.5
AK-based Prestwick Library Screening Results: E. cloacae (increase in extracellular AK activity) (E. cloacae; planktonic E. cloacae, 384-well, […]): 1.6
AK-based Prestwick Library Screening Results: S. aureus (increase in extracellular AK activity) ([2]; planktonic S. aureus, 384-well, […]): 2.1

COc1ccc(C[C@H]2NC[C@H](O)[C@H]2OC(C)=O)cc1 [Anisomycin]
AK-based Prestwick Library Screening Results, P. aeruginosa (increase in extracellular AK activity) (P. aeruginosa; planktonic P. aeruginosa, […]): 0.7
AK-based Prestwick Library Screening Results, E. coli (increase in extracellular AK activity) (E. coli; planktonic E. coli, […]): 0.7
AK-based Prestwick Library Screening Results, K. pneumoniae (increase in extracellular AK activity) (K. pneumoniae; planktonic K. pneumoniae, […]): 0.5
AK-based Prestwick Library Screening Results, E. faecium (increase in extracellular AK activity) (E. faecium; planktonic E. faecium, […]): 1.0
AK-based Prestwick Library Screening Results, A. baumannii (increase in extracellular AK activity) ([1]; planktonic A. baumannii, […]): 0.7
AK-based Prestwick Library Screening Results, E. cloacae (increase in extracellular AK activity) (E. cloacae; planktonic E. cloacae, […]): 0.7
AK-based Prestwick Library Screening Results, S. aureus (increase in extracellular AK activity) ([2]; planktonic S. aureus, […]): 0.7

CC(=O)NC(CC(=O)O)C(=O)O (racemic) [Aspartic acid, N-acetyl (R,S)]
AK-based Prestwick Library Screening Results, P. aeruginosa (increase in extracellular AK activity) (P. aeruginosa; planktonic P. aeruginosa, cutoff for positive-scoring molecules 3-fold increase): 0.6
AK-based Prestwick Library Screening Results, E. coli (increase in extracellular AK activity) (E. coli; planktonic E. coli, cutoff for positive-scoring molecules 3-fold increase): 0.6
AK-based Prestwick Library Screening Results, K. pneumoniae (increase in extracellular AK activity) (K. pneumoniae; planktonic K. pneumoniae, cutoff for positive-scoring molecules 3-fold increase): 0.5
AK-based Prestwick Library Screening Results, E. faecium (increase in extracellular AK activity) (E. faecium; planktonic E. faecium, cutoff for positive-scoring molecules 3-fold increase): 0.9
AK-based Prestwick Library Screening Results, A. baumannii (increase in extracellular AK activity) ([1]; planktonic A. baumannii, cutoff for positive-scoring molecules 3-fold increase): 0.6
AK-based Prestwick Library Screening Results, E. cloacae (increase in extracellular AK activity) (E. cloacae; planktonic E. cloacae, cutoff for positive-scoring molecules 3-fold increase): 0.7
AK-based Prestwick Library Screening Results, S. aureus (increase in extracellular AK activity) ([2]; planktonic S. aureus, cutoff for positive-scoring molecules 3-fold increase): 0.5

C[C@H](CCC(=O)O)[C@H]1CC[C@H]2[C@@H]3[C@@H](O)C[C@@H]4C[C@H](O)CC[C@]4(C)[C@H]3CC[C@]12C [Urosiol]
AK-based Prestwick Library Screening Results, P. aeruginosa (fold increase in extracellular AK activity) (P. aeruginosa; [4]): 1.2
AK-based Prestwick Library Screening Results, E. coli (fold increase in extracellular AK activity) (E. coli; [4]): 1.2
AK-based Prestwick Library Screening Results, K. pneumoniae (fold increase in extracellular AK activity) (K. pneumoniae; [4]): 1.0
AK-based Prestwick Library Screening Results, E. faecium (fold increase in extracellular AK activity) (E. faecium; [4]): 1.0
AK-based Prestwick Library Screening Results, A. baumannii (fold increase in extracellular AK activity) [1, 4]: 1.3
AK-based Prestwick Library Screening Results, E. cloacae (fold increase in extracellular AK activity) (E. cloacae; [4]): 1.4
AK-based Prestwick Library Screening Results, S. aureus (fold increase in extracellular AK activity) [2, 4]: 1.2

CC[N+](CC)(CC(=O)Nc1c(C)cccc1C)Cc1ccccc1 [Denatonium benzoate]
fold induction at 50 µM (P. aeruginosa; cutoff for positive-scoring molecules 3-fold increase, read-out: AK-based Prestwick Library Screening Results, P. aeruginosa (fold increase in extracellular AK activity)): 0.4
fold induction at 50 µM (E. coli; cutoff for positive-scoring molecules 3-fold increase, read-out: AK-based Prestwick Library Screening Results, E. coli (fold increase in extracellular AK activity)): 0.5
fold induction at 50 µM (K. pneumoniae; cutoff for positive-scoring molecules 3-fold increase, read-out: AK-based Prestwick Library Screening Results, K. pneumoniae (fold increase in extracellular AK activity)): 0.4
fold induction at 50 µM (E. faecium; cutoff for positive-scoring molecules 3-fold increase, read-out: AK-based Prestwick Library Screening Results, E. faecium (fold increase in extracellular AK activity)): 0.9
fold induction at 50 µM ([1]; cutoff for positive-scoring molecules 3-fold increase, read-out: AK-based Prestwick Library Screening Results, A. baumannii (fold increase in extracellular AK activity)): 0.3
fold induction at 50 µM (E. cloacae; cutoff for positive-scoring molecules 3-fold increase, read-out: AK-based Prestwick Library Screening Results, E. cloacae (fold increase in extracellular AK activity)): 0.4
fold induction at 50 µM ([2]; cutoff for positive-scoring molecules 3-fold increase, read-out: AK-based Prestwick Library Screening Results, S. aureus (fold increase in extracellular AK activity)): 0.4

CC1(C)OC(=O)NC1=O [Dimethadione]
fold induction at 50 µM (P. aeruginosa; planktonic, cutoff for positive-scoring molecules 3-fold increase, read-out: AK-based Prestwick Library Screening Results, P. aeruginosa (fold increase in extracellular AK activity)): 0.8
fold induction at 50 µM (E. coli; planktonic, cutoff for positive-scoring molecules 3-fold increase, read-out: AK-based Prestwick Library Screening Results, E. coli (fold increase in extracellular AK activity)): 0.9
fold induction at 50 µM (K. pneumoniae; planktonic, cutoff for positive-scoring molecules 3-fold increase, read-out: AK-based Prestwick Library Screening Results, K. pneumoniae (fold increase in extracellular AK activity)): 0.8
fold induction at 50 µM (E. faecium; planktonic, cutoff for positive-scoring molecules 3-fold increase, read-out: AK-based Prestwick Library Screening Results, E. faecium (fold increase in extracellular AK activity)): 0.9
fold induction at 50 µM ([1]; planktonic, cutoff for positive-scoring molecules 3-fold increase, read-out: AK-based Prestwick Library Screening Results, A. baumannii (fold increase in extracellular AK activity)): 0.8
fold induction at 50 µM (E. cloacae; planktonic, cutoff for positive-scoring molecules 3-fold increase, read-out: AK-based Prestwick Library Screening Results, E. cloacae (fold increase in extracellular AK activity)): 1
fold induction at 50 µM ([2]; planktonic, cutoff for positive-scoring molecules 3-fold increase, read-out: AK-based Prestwick Library Screening Results, S. aureus (fold increase in extracellular AK activity)): 0.7

CN(Cc1cnc2nc(N)nc(N)c2n1)c1ccc(C(=O)N[C@@H](CCC(=O)O)C(=O)O)cc1 (racemic) [Amethopterin (R,S)]
AK-based Prestwick Library Screening Results, P. aeruginosa (fold increase in extracellular AK activity) (P. aeruginosa; [5]): 1.1
AK-based Prestwick Library Screening Results, E. coli (fold increase in extracellular AK activity) (E. coli; [5]): 1.1
AK-based Prestwick Library Screening Results, K. pneumoniae (fold increase in extracellular AK activity) (K. pneumoniae; [5]): 0.8
AK-based Prestwick Library Screening Results, E. faecium (fold increase in extracellular AK activity) (E. faecium; [5]): 0.9
AK-based Prestwick Library Screening Results, A. baumannii (fold increase in extracellular AK activity) [1, 5]: 0.9
AK-based Prestwick Library Screening Results, E. cloacae (fold increase in extracellular AK activity) (E. cloacae; [5]): 1.3
AK-based Prestwick Library Screening Results, S. aureus (fold increase in extracellular AK activity) [2, 5]: 1.0

Verteporfin
AK-based Prestwick library screening result, P. aeruginosa (fold increase in extracellular AK activity) (P. aeruginosa; planktonic P. aeruginosa, positive cutoff 3-fold increase): 0.8
AK-based Prestwick library screening result, E. coli (fold increase in extracellular AK activity) (E. coli; planktonic E. coli, positive cutoff 3-fold increase): 0.7
AK-based Prestwick library screening result, K. pneumoniae (fold increase in extracellular AK activity) (K. pneumoniae; planktonic K. pneumoniae, positive cutoff 3-fold increase): 0.8
AK-based Prestwick library screening result, E. faecium (fold increase in extracellular AK activity) (E. faecium; planktonic E. faecium, positive cutoff 3-fold increase): 1.2
AK-based Prestwick library screening result, A. baumannii (fold increase in extracellular AK activity) ([1]; planktonic A. baumannii, positive cutoff 3-fold increase): 0.9
AK-based Prestwick library screening result, E. cloacae (fold increase in extracellular AK activity) (E. cloacae; planktonic E. cloacae, positive cutoff 3-fold increase): 1.6
AK-based Prestwick library screening result, S. aureus (fold increase in extracellular AK activity) ([2]; planktonic S. aureus, positive cutoff 3-fold increase): 0.5

NS(=O)(=O)c1cc2c(cc1Cl)NCNS2(=O)=O [Hydrochlorothiazide]
fold induction at 50 µM (P. aeruginosa; 384-well format, cutoff for positive-scoring molecules 3-fold increase, read-out: AK-based Prestwick Library Screening Results, P. aeruginosa (increase in extracellular AK activity)): 0.5
fold induction at 50 µM (E. coli; 384-well format, cutoff for positive-scoring molecules 3-fold increase, read-out: AK-based Prestwick Library Screening Results, E. coli (increase in extracellular AK activity)): 0.5
fold induction at 50 µM (K. pneumoniae; 384-well format, cutoff for positive-scoring molecules 3-fold increase, read-out: AK-based Prestwick Library Screening Results, K. pneumoniae (increase in extracellular AK activity)): 0.6
fold induction at 50 µM (E. faecium; 384-well format, cutoff for positive-scoring molecules 3-fold increase, read-out: AK-based Prestwick Library Screening Results, E. faecium (increase in extracellular AK activity)): 1.1
fold induction at 50 µM ([1]; 384-well format, cutoff for positive-scoring molecules 3-fold increase, read-out: AK-based Prestwick Library Screening Results, A. baumannii (increase in extracellular AK activity)): 0.5
fold induction at 50 µM (E. cloacae; 384-well format, cutoff for positive-scoring molecules 3-fold increase, read-out: AK-based Prestwick Library Screening Results, E. cloacae (increase in extracellular AK activity)): 0.4
fold induction at 50 µM ([2]; 384-well format, cutoff for positive-scoring molecules 3-fold increase, read-out: AK-based Prestwick Library Screening Results, S. aureus (increase in extracellular AK activity)): 0.5
